{"source": "patent US6566374B1", "about": "“Method of treating or preventing microbial infections with loperamide” (priority 1998, dated 2003)", "format_in_all_cases": "cell-based", "key": {"[1]": {"test_system": "Candida albicans NCYC 1363", "experiment": "Nominal Inhibitory Concentration (spiral plater)", "conditions": "24 hrs SDA 37° C.", "experimental": "(§1) A broth, appropriate to the microorganism to be tested (see Table 1 below), was inoculated aseptically from a pure plate culture and then incubated as indicated in Table 1.\n(§2) Following the correct incubation, the liquid culture was diluted in a sterile saline solution to give approximately 10^5 to 10^6 CFU/ml. The suspension was serially diluted and spread plates were prepared for each dilution so as to obtain an accurate CFU/ml value.\n(§3) The spiral plater was prepared by passing one cupule of IMS followed by one cupule of sterile water through the plater with the valve open and vacuum pump on. With the spiral plater cam on “Linear Deposition”, the suspension of micoorganism to be tested was placed in a new cupule. The suspension was taken up, ensuring that the glass tube was full, and the organisms were then deposited in an even spiral onto agar plates.\n(§4) The depth of the agar was measured on the plates and this value recorded. Negative control plates with no added active were produced in triplicate.\n(§5) The spiral plater was washed with one cupule of IMS and one cupule of sterile deionised water in-between the inoculation of different microbial samples. Once the microbial inocula had dried, the spiral plater was washed and the cam changed to “Gradient Deposition”. The antimicrobial solution was deposited in a spiral gradient directly on top of the dried inoculated spiral. Loperamide hydrochloride was used at concentrations of 1% and 0.3% made up in 50% dimethyl sulphoxide.\n(§6) The spiral plater was washed with one cupule of IMS and one of sterile deionised water in-between different antimicrobial solutions. The solutions were left to dry before being incubated, at 37° C. for 24 hr, +/−6 hr or 48 hr +/−6 hr for anaerobes (see Table 1).\n(§7) Following incubation, the control plates were checked to have grown to the end of the spiral inoculum. Digital calipers were used to measure the distance between the inoculation point and the point where confluent growth starts. The distance value termed the Radial Advance was used to determine the Deposition Factor (DF). The NIC can be calculated from the following formula:\n(§8) NIC=Nominal Inhibitory Concentration (e.g. ppm)\n(§9) SC=Stock concentration of antimicrobial (e.g. ppm)\n(§10) ha=height of agar in plate (mm)"}, "[2]": {"test_system": "Lactobacillus acidophillus NCTC 4505", "experiment": "Nominal Inhibitory Concentration (spiral plater)", "conditions": "24 hrs BA 37° C.", "experimental": "as §1, §2, §3, §4, §5, §6, §7, §8, §9, §10"}, "[3]": {"test_system": "Fusobacterium nucleatum NCTC 10562", "experiment": "Nominal Inhibitory Concentration (spiral plater)", "conditions": "48 hrs BA 37° C. (anaerobically)", "experimental": "as §1, §2, §3, §4, §5, §6, §7, §8, §9, §10"}, "[4]": {"test_system": "Propionibacterium acnes NCTC 737", "experiment": "Nominal Inhibitory Concentration (spiral plater)", "conditions": "48 hrs BA 37° C. anaerobically, loperamide hydrochloride 1% and 0.3% in 50% dimethyl sulphoxide", "experimental": "as §1, §2, §3, §4, §5, §6, §7, §8, §9, §10"}, "[5]": {"test_system": "Micrococcus luteus NCIB 8166", "experiment": "Nominal Inhibitory Concentration (spiral plater)", "conditions": "24 hrs BA 37° C.", "experimental": "as §1, §2, §3, §4, §5, §6, §7, §8, §9, §10"}, "[6]": {"test_system": "Escherichia coli NCTC 8545", "experiment": "Nominal Inhibitory Concentration (spiral plater)", "conditions": "24 hrs BA 37° C.", "experimental": "as §1, §2, §3, §4, §5, §6, §7, §8, §9, §10"}, "[7]": {"test_system": "Bacillus subtilis ATCC 6633", "experiment": "Nominal Inhibitory Concentration (spiral plater)", "conditions": "24 hrs BA 37° C.", "experimental": "as §1, §2, §3, §4, §5, §6, §7, §8, §9, §10"}, "[8]": {"test_system": "Streptococcus oralis NCTC 11427", "experiment": "Nominal Inhibitory Concentration (spiral plater)", "conditions": "24 hrs BA 37° C.", "experimental": "as §1, §2, §3, §4, §5, §6, §7, §8, §9, §10"}, "[9]": {"test_system": "Staphylococcus epidermidis ATCC 8853", "experiment": "Nominal Inhibitory Concentration (spiral plater)", "conditions": "24 hrs TSA 37° C.", "experimental": "as §1, §2, §3, §4, §5, §6, §7, §8, §9, §10"}, "[10]": {"test_system": "Pseudomonas aeruginosa ATCC 9027", "experiment": "Nominal Inhibitory Concentration (spiral plater)", "conditions": "24 hrs BA 37° C.", "experimental": "as §1, §2, §3, §4, §5, §6, §7, §8, §9, §10"}, "[11]": {"test_system": "Streptococcus sanguis NCTC 10904", "experiment": "Nominal Inhibitory Concentration (spiral plater)", "conditions": "24 hrs BA 37° C.", "experimental": "as §1, §2, §3, §4, §5, §6, §7, §8, §9, §10"}, "[12]": {"test_system": "Pseudomonas cepacia ATCC 25416", "experiment": "Nominal Inhibitory Concentration (spiral plater)", "conditions": "24 hrs BA 37° C.", "experimental": "as §1, §2, §3, §4, §5, §6, §7, §8, §9, §10"}, "[13]": {"test_system": "Streptococcus mutans NCTC 11061", "experiment": "Nominal Inhibitory Concentration (spiral plater)", "conditions": "24 hrs BA 37° C.", "experimental": "as §1, §2, §3, §4, §5, §6, §7, §8, §9, §10"}, "[14]": {"test_system": "Sphingomonas paucimobilis NCTC 11030", "experiment": "Nominal Inhibitory Concentration (spiral plater)", "conditions": "24 hrs BA 37° C.", "experimental": "as §1, §2, §3, §4, §5, §6, §7, §8, §9, §10"}, "[15]": {"test_system": "Pseudomonas stutzeri NCTC 10475", "experiment": "Nominal Inhibitory Concentration (spiral plater)", "conditions": "24 hrs BA 37° C.", "experimental": "as §1, §2, §3, §4, §5, §6, §7, §8, §9, §10"}, "[16]": {"test_system": "Staphylococcus aureus ATCC 6538", "experiment": "Nominal Inhibitory Concentration (spiral plater)", "conditions": "24 hrs TSA 37° C.", "experimental": "as §1, §2, §3, §4, §5, §6, §7, §8, §9, §10"}, "[17]": {"test_system": "S. mutans, S. sanguis, S. aureus, C. albicans, Methicillin resistant S. aureus, P. acnes", "experiment": "Effective kill times of antimicrobial solutions", "conditions": "loperamide in 2.5% dimethyl sulphoxide; sampled at 30 seconds, 1, 2 and 5 minutes; data only in FIGS. 1-6", "experimental": "A suitable broth culture of the test organism was prepared (see Table 3 below). Cultures were diluted (1:10) using a Ringer and Peptone solution. 30 ml volumes of loperamide made up in 2.5% dimethyl sulphoxide were prepared. The samples were then inoculated with 30 ml of the initial microorganism suspension, and at time intervals of 30 seconds, 1, 2 and 5 minutes, 1 ml of the sample was removed and added to 9 ml of Dey-Engley neutralizing broth. Two further serial dilutions were then prepared.\n0.1 ml from the Dey-Engley broths and subsequent dilutions were spread plated and then incubated. See Table 3 below for the appropriate agar and incubation conditions."}}}
{"compound": "CN(C)C(=O)C(CCN1CCC(O)(c2ccc(Cl)cc2)CC1)(c1ccccc1)c1ccccc1", "note": "[Loperamide, 4-(p-chlorophenyl)-4-hydroxy-N,N-dimethyl-α,α-diphenyl-1-piperidinebutyramide]", "values": [{"measurement": "NIC", "setting": "[1]", "result": 39, "unit": "ppm"}, {"measurement": "NIC", "setting": "[2]", "result": 18, "unit": "ppm"}, {"measurement": "NIC", "setting": "[3]", "result": 7, "unit": "ppm"}, {"measurement": "NIC", "setting": "[4]", "result": 16, "unit": "ppm"}, {"measurement": "NIC", "setting": "[5]", "result": 9, "unit": "ppm"}, {"measurement": "NIC", "setting": "[6]", "result": ">165", "unit": "ppm"}, {"measurement": "NIC", "setting": "[7]", "result": 9, "unit": "ppm"}, {"measurement": "NIC", "setting": "[8]", "result": 24, "unit": "ppm"}, {"measurement": "NIC", "setting": "[9]", "result": 33, "unit": "ppm"}, {"measurement": "NIC", "setting": "[10]", "result": ">165", "unit": "ppm"}, {"measurement": "NIC", "setting": "[11]", "result": 27, "unit": "ppm"}, {"measurement": "NIC", "setting": "[12]", "result": 36, "unit": "ppm"}, {"measurement": "NIC", "setting": "[13]", "result": 30, "unit": "ppm"}, {"measurement": "NIC", "setting": "[14]", "result": 11, "unit": "ppm"}, {"measurement": "NIC", "setting": "[15]", "result": 21, "unit": "ppm"}, {"measurement": "NIC", "setting": "[16]", "result": 34, "unit": "ppm"}, {"measurement": "bactericidal properties (kill time)", "setting": "[17]", "result": "good bactericidal properties"}]}
